What was measured:
Experiment in all cases: biochemical
[1] = target: KRas G12A (Homo sapiens, UniProt P01116, G12A);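 further: binding to KRas measured by TR-FRET displacement after one hour at room temperature, IC50 from a four-parameter fit of percent-of-control values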
Method: (§1) The ability of a compound to bind to KRas was measured using a TR-FRET displacement assay. […] After a 60-minute incubation at room temperature, the reaction was measured using a BMG LABTECH CLARIO star Plus via TR-FRET. […] The POC values were fit to a 4-parameter IC50 equation and the IC50 value reported.

[2] = target: KRas WT (Homo sapiens, UniProt P01116);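 further: binding to KRas read as TR-FRET displacement after a one-hour room-temperature incubation, IC50 derived from percent-of-control values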
Method: as §1

[3] = target: KRas G12C (Homo sapiens, UniProt P01116, G12C);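 further: binding to KRas assessed by TR-FRET displacement after one hour incubation at room temperature, potency fitted from percent-of-control values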
Chain of KRas G12C (P01116 1-169 isoform P01116-2 G12C): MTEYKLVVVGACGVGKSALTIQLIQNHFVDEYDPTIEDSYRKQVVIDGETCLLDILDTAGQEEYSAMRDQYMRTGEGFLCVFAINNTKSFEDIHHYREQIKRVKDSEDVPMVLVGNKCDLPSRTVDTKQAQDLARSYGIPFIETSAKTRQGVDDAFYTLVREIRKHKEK
Method: as §1

[4] = target: KRas G12D (Homo sapiens, UniProt P01116, G12D);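 further: TR-FRET displacement binding assay on KRas, read after a one-hour incubation at room temperature, IC50 fitted from percent-of-control values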
Chain of KRas G12D (P01116 1-169 isoform P01116-2 G12D): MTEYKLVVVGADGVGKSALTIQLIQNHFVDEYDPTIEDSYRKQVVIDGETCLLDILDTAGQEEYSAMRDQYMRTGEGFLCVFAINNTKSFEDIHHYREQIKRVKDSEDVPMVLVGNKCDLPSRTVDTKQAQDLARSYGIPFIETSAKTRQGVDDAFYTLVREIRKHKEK
Method: as §1

[5] = target: KRas G12S (Homo sapiens, UniProt P01116, G12S);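 further: TR-FRET displacement binding to KRas, read after one hour incubation at room temperature, IC50 from four-parameter fit of percent of control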
Chain of KRas G12S (P01116 1-169 isoform P01116-2 G12S): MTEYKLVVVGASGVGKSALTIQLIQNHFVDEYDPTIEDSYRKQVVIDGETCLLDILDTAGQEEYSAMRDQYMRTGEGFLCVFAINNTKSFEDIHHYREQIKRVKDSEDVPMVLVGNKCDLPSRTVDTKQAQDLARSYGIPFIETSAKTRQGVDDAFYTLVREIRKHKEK
Method: as §1

[6] = target: KRas G12R (Homo sapiens, UniProt P01116, G12R);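 further: TR-FRET displacement assay of compound binding to KRas, read after one hour at room temperature, potency from a four-parameter fit of percent-of-control values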
Chain of KRas G12R (P01116 1-169 isoform P01116-2 G12R): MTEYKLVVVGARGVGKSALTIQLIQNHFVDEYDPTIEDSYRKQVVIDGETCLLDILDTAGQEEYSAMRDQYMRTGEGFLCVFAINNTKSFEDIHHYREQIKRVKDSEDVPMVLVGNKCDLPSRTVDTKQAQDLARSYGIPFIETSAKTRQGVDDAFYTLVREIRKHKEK
Method: as §1

[7] = target: KRas G12V (Homo sapiens, UniProt P01116, G12V);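 further: KRas binding measured by TR-FRET displacement at room temperature, IC50 fitted from percent of control values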
Chain of KRas G12V (P01116 1-169 isoform P01116-2 G12V): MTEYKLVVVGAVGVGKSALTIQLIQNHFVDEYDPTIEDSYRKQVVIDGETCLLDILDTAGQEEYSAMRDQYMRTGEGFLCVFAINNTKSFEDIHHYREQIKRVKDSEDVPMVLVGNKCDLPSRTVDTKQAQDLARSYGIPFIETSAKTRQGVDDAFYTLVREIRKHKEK
Method: as §1

Chain of KRas G12A (P01116 1-169 isoform P01116-2 G12A): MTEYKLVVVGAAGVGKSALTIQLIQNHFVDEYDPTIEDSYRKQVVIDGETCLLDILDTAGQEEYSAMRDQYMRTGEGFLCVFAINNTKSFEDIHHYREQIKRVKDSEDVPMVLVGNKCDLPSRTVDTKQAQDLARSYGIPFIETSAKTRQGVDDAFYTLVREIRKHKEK
Chain of KRas WT (P01116 1-169 isoform P01116-2): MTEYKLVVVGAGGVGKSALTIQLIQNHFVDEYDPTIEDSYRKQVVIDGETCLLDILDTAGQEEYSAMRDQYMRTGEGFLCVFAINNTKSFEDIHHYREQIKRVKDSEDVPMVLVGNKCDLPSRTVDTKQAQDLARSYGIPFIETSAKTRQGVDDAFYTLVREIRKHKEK

## Cc1cc(N)nc(-c2ncc3c(N4CCC[C@@](C)(O)C4)nc(OC[C@@H]4CCCN4C)nc3c2F)c1C(F)(F)F [Example 435, (R)-1-(7-(6-amino-4-methyl-3-(trifluoromethyl)pyridin-2-yl)-8-fluoro-2-(((S)-1-methylpyrrolidin-2-yl)methoxy)pyrido[4,3-d]pyrimidin-4-yl)-3-methylpiperidin-3-ol]
[1]
  IC50: 4910 nM
[2]
  IC50: 4450 nM
[3]
  IC50: 4840 nM
[4]
  IC50: 3890 nM
[5]
  IC50: 5640 nM
[6]
  IC50: 6860 nM
[7]
  IC50: 5440 nM

## NS(=O)(=O)CC1CCCN(c2nc(OCC34CCCN3CCC4)nc3c(F)c(-c4cccc5ccccc45)ncc23)C1 (stereo not drawn) [Example 436]
[1]
  IC50: 204 nM
[2]
  IC50: 193 nM
[3]
  IC50: 271 nM
[4]
  IC50: 798 nM
[5]
  IC50: 217 nM
[6]
  IC50: 331 nM
[7]
  IC50: 652 nM

## C#Cc1cccc2cccc(-c3ncc4c(N5CCCC(CS(N)(=O)=O)C5)nc(OCC56CCCN5CCC6)nc4c3F)c12 (stereo not drawn) [Example 437, 1-(1-(7-(8-ethynylnaphthalene-1-yl)-8-fluoro-2-((hexahydro-1H-pyrrolizin-7a-yl)methoxy)pyrido[4,3-d]pyrimidin-4-yl)piperidin-3-yl)methanesulfonamide]
[1]
  IC50: 1360 nM
[2]
  IC50: 715 nM
[3]
  IC50: 1400 nM
[4]
  IC50: 1430 nM
[5]
  IC50: 904 nM
[6]
  IC50: 2760 nM
[7]
  IC50: 2680 nM

## Cc1cccc2cccc(-c3ncc4c(N5CCCC(CS(N)(=O)=O)C5)nc(OCC56CCCN5CCC6)nc4c3F)c12 (stereo not drawn) [Example 438, 1-(1-(8-fluoro-2-((hexahydro-1H-pyrrolizin-7a-yl)methoxy)-7-(8-methylnaphthalen-1-yl)pyrido[4,3-d]pyrimidin-4-yl)piperidin-3-yl)methanesulfonamide]
[1]
  IC50: 109 nM
[2]
  IC50: 95 nM
[3]
  IC50: 130 nM
[4]
  IC50: 238 nM
[5]
  IC50: 106 nM
[6]
  IC50: 99 nM
[7]
  IC50: 239 nM

## NS(=O)(=O)CC1CCCN(c2nc(OCC34CCCN3CCC4)nc3c(F)c(-c4cccc5cccc(CO)c45)ncc23)C1 (stereo not drawn) [Example 439, 1-(1-(8-fluoro-2-((hexahydro-1H-pyrrolizin-7a-yl)methoxy)-7-(8-(hydroxymethyl)naphthalen-1-yl)pyrido[4,3-d]pyrimidin-4-yl)piperidin-3-yl)methanesulfonamide]
[1]
  IC50: 2150 nM
[2]
  IC50: 2030 nM
[3]
  IC50: 2530 nM
[4]
  IC50: 7970 nM
[5]
  IC50: 2260 nM
[6]
  IC50: 2830 nM
[7]
  IC50: 5790 nM

## CC1(O)CCCN(c2nc(OCC34CCCN3CCC4)nc3c(F)c(-c4cccc5cccc(C6CC6)c45)ncc23)C1 (stereo not drawn) [Example 440, 1-(7-(8-cyclopropylnaphthalen-1-yl)-8-fluoro-2-((hexahydro-1H-pyrrolizin-7a-yl)methoxy)pyrido[4,3-d]pyrimidin-4yl)-3-methylpiperidin-3-ol]
[1]
  IC50: 758 nM
[2]
  IC50: 714 nM
[3]
  IC50: 550 nM
[4]
  IC50: 510 nM
[5]
  IC50: 690 nM
[6]
  IC50: 1720 nM
[7]
  IC50: 844 nM

## O=S1(=O)CC(CNc2nc(OCC34CCCN3CCC4)nc3c(F)c(-c4cccc5cccc(CO)c45)ncc23)C1 [Example 443, 3-(((8-fluoro-2-((hexahydro-1H-pyrrolizin-7a-yl)methoxy)-7-(8-(hydroxymethyl)naphthalen-1-yl)pyrido[4,3-d]pyrimidin-4-yl)amino)methyl)thietane1,1-dioxide]
[1]
  IC50: 8470 nM
[2]
  IC50: 18800 nM
[3]
  IC50: 8200 nM
[4]
  IC50: 53000 nM
[5]
  IC50: 6310 nM
[6]
  IC50: 6380 nM
[7]
  IC50: 4210 nM

## O=C1NC(=O)C2(CCCN(c3nc(OCC45CCCN4CCC5)nc4c(F)c(-c5cccc6cccc(CO)c56)ncc34)C2)N1 (stereo not drawn) [Example 447, 7-(8-fluoro-2-((hexahydro-1H-pyrrolizin-7a-yl)methoxy)-7-(8-(hydroxymethyl)naphthalen-1-yl)pyrido[4,3-d]pyrimidin-4-yl)-1,3,7-triazaspiro[4.5]decane-2,4-dione]
[1]
  IC50: 665 nM
[2]
  IC50: 557 nM
[3]
  IC50: 608 nM
[4]
  IC50: 1100 nM
[5]
  IC50: 587 nM
[6]
  IC50: 964 nM
[7]
  IC50: 744 nM

## Cc1cccc2cccc(-c3ncc4c(N5CCCC6(C5)NC(=O)NC6=O)nc(OCC56CCCN5CCC6)nc4c3F)c12 (stereo not drawn) [Example 448, 7-(8-fluoro-2-((hexahydro-1H-pyrrolizin-7a-yl)methoxy)-7-(8-methylnaphthalen-1-yl)pyrido[4,3-d]pyrimidin-4-yl)-1,3,7-triazaspiro[4.5]decane-2,4-dione]
[1]
  IC50: 59 nM
[2]
  IC50: 53 nM
[3]
  IC50: 53 nM
[4]
  IC50: 87 nM
[5]
  IC50: 49 nM
[6]
  IC50: 61 nM
[7]
  IC50: 54 nM

Reference: patent US12398154B2, “Azaquinazoline pan-KRas inhibitors” (Mirati Therapeutics, Inc., priority 2020, dated 2025)
